In patent US20240150368A1, “ULK INHIBITORS AND METHODS OF USE THEREOF” (Deciphera Pharmaceuticals, LLC, priority 2022, published 2024):

What was measured:
[1] = target: T1, ULK2 kinase (Homo sapiens, UniProt Q8IYT8); test: Biochemical assay for ULK2 (coupled pyruvate kinase/lactate dehydrogenase assay); settings: 1 mM ATP, 1 nM ULK2; read-out: ULK2 (inhibition of biochemical activity), IC50
T1 construct: (residues 1-306 with N-terminal GST and His tag; ID NO: 2); purchased Signal Chem U02-11G
How it was run: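 Continuous PK/LDH-coupled NADH oxidation assay (A340) with 1 nM ULK2, 200 μM ULKtide and 1 mM ATP in Tris pH 7.5, 15 mM MgCl2, 1% DMSO, read 6 h at 30° C. Rates from the 2-3 h window converted to percent inhibition against no-compound and known-inhibitor controls; IC50 by four-parameter sigmoidal fit.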

[2] = system: ULK kinase substrate ATG13 (pS318-ATG13) in A549 (KRAS mutant) cells; test: pATG13 levels of mutant KRas A549 cells after treatment with ULK inhibitors in combination with trametinib (ELISA); assay type: cell-based, human
How it was run: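 A549 cells grown overnight were treated with a test-compound dose response plus trametinib at 250 nM final (or DMSO) overnight at 37° C. Lysates were assayed by total-ATG13 capture and biotinylated pS318-ATG13 detection ELISA (450 nm minus 540 nm background); % phosphorylation versus controls gave IC50 values.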

[3] = target: T2, ULK1 kinase (Homo sapiens, UniProt O75385, E37A/K38A); test: Biochemical assay for ULK1 (coupled pyruvate kinase/lactate dehydrogenase assay); settings: 1 mM ATP, 0.1 nM ULK1; read-out: ULK1 (inhibition of biochemical activity), IC50
T2 construct: (residues 1-283; ID NO: 1); purchased Beryllium
T2 sequence (O75385 1-283 E37A/K38A): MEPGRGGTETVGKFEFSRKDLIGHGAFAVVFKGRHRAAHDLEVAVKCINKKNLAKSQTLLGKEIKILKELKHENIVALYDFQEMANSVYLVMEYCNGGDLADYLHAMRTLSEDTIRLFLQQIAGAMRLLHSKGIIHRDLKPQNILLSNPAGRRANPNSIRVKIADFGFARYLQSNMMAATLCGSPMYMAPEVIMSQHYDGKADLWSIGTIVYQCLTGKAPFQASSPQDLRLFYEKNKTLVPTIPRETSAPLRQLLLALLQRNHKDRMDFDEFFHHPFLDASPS
How it was run: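 IC50 values were fitted to percent inhibition, normalised with no-compound and known-inhibitor controls, using rates from 2–3 h of a 6 h read at 30 °C. ADP was coupled through pyruvate kinase/lactate dehydrogenase to NADH loss at 340 nm.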

T1 sequence (Q8IYT8 with tags, fused parts or gaps): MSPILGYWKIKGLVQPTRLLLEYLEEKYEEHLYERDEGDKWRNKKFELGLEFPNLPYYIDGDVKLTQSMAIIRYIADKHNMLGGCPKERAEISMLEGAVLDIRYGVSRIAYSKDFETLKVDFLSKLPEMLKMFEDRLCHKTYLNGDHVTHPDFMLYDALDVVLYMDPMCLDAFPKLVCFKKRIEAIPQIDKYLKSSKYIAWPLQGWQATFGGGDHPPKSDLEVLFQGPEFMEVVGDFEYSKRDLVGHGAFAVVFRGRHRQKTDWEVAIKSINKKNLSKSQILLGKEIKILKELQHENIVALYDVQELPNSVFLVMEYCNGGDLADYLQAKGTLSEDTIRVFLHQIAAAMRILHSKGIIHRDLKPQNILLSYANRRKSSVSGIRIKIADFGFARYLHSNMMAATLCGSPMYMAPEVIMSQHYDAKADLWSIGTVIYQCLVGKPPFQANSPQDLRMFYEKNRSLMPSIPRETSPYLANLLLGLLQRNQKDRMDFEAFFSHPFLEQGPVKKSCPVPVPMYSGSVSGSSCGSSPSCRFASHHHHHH

SMILES | IC50 [1] | IC50 [2] | IC50 [3]
CC/C(Nc1cnn(C(C)C)c1)=C1/C(=O)Nc2ccc(C(=O)NCCOC(F)(F)F)cc21 [Example 136] | 10 to 100 nM | 100 to 300 nM | ≤ 10 nM
CC/C(Nc1cnn(C(C)C)c1)=C1/C(=O)Nc2ccc(C(=O)NCC3CCC(C)(C)O3)cc21 (stereo not drawn) [Example 137] | 10 to 100 nM | 300 to 600 nM | ≤ 10 nM
CC/C(Nc1cnn(C(C)C)c1)=C1/C(=O)Nc2ccc(C(=O)NCC3CCC4(CCC4)O3)cc21 (stereo not drawn) [Example 138] | 100 to 500 nM | > 600 nM | 10 to 100 nM
CC/C(Nc1cnn(C(C)C)c1)=C1/C(=O)Nc2ccc(C(=O)NCC3(C(F)(F)F)CC3)cc21 [Example 140] | 10 to 100 nM | ≤ 100 nM | ≤ 10 nM
CC/C(Nc1ccc2nn(C(C)C)cc2c1)=C1/C(=O)Nc2ccc(C(=O)NCC(F)(F)F)cc21 [Example 142] | 10 to 100 nM | 300 to 600 nM | 10 to 100 nM
CC/C(Nc1cnn(C2CC(F)(F)C2)c1)=C1/C(=O)Nc2ccc(C(=O)NCC(F)(F)F)cc21 [Example 144] | 10 to 100 nM | ≤ 100 nM | ≤ 10 nM
CC/C(Nc1ccccn1)=C1/C(=O)Nc2ccc(C(=O)NCC(F)(F)F)cc21 [Example 145] | 100 to 500 nM | 100 to 300 nM | 10 to 100 nM
CC/C(Nc1cnn(C(F)F)c1)=C1/C(=O)Nc2ccc(C(=O)NCC(C)C)cc21 [Example 147] | 100 to 500 nM | 100 to 300 nM | 10 to 100 nM
CC/C(Nc1cnn(C(C)C)c1)=C1/C(=O)Nc2ccc(C(=O)NCC(C)(C)OC)cc21 [Example 148] | 100 to 500 nM | 100 to 300 nM | 10 to 100 nM
CC/C(Nc1cc(C(F)(F)F)ccn1)=C1/C(=O)Nc2ccc(C(=O)NCC(F)(F)F)cc21 [Example 149] | 10 to 100 nM | 100 to 300 nM | 10 to 100 nM
CC/C(Nc1cnn(C(C)C)c1)=C1/C(=O)Nc2ccc(C(=O)NCC3(F)CC3)cc21 [Example 152] | ≤ 10 nM | ≤ 100 nM | ≤ 10 nM
CC/C(Nc1cnn(CC)c1)=C1/C(=O)Nc2ccc(C(=O)NCC3(F)CC3)cc21 [Example 153] | ≤ 10 nM | ≤ 100 nM | ≤ 10 nM
CC/C(Nc1cnn(C)c1)=C1/C(=O)Nc2ccc(C(=O)NCC3(F)CC3)cc21 [Example 154] | 10 to 100 nM | ≤ 100 nM | ≤ 10 nM
CC/C(Nc1cnn(C(C)C)c1)=C1/C(=O)Nc2ccc(C(=O)NCC3(C#N)CC3)cc21 [Example 156] | 10 to 100 nM | ≤ 100 nM | ≤ 10 nM
CC/C(Nc1cnn(CC(C)OC)c1)=C1/C(=O)Nc2ccc(C(=O)NCC(F)(F)F)cc21 (stereo not drawn) [Example 157] | 100 to 500 nM | 100 to 300 nM | 10 to 100 nM
CC/C(Nc1cnn(CC(C)OC)c1)=C1/C(=O)Nc2ccc(C(=O)NCC(F)(F)F)cc21 (stereo not drawn) [Example 158] | 100 to 500 nM | 100 to 300 nM | 10 to 100 nM
CC/C(Nc1cnn(C(C)CC)c1)=C1/C(=O)Nc2ccc(C(=O)NCC(F)(F)F)cc21 (stereo not drawn) [Example 159] | 10 to 100 nM | 100 to 300 nM | 10 to 100 nM
CC/C(Nc1cnn(CC(F)(F)F)c1)=C1/C(=O)Nc2ccc(C(=O)NCC(C)(C)F)cc21 [Example 160] | 10 to 100 nM | 100 to 300 nM | ≤ 10 nM
CC/C(Nc1cnn(CC(F)F)c1)=C1/C(=O)Nc2ccc(C(=O)NCC(C)(C)F)cc21 [Example 161] | 10 to 100 nM | ≤ 100 nM | ≤ 10 nM
CC/C(Nc1cnn(C(C)C)c1)=C1/C(=O)Nc2ccc(C(=O)NCCC(F)(F)F)cc21 [Example 166] | ≤ 10 nM | ≤ 100 nM | ≤ 10 nM
CC/C(Nc1cnn(C(C)C)c1)=C1/C(=O)Nc2ccc(C(=O)NCC3(C)CCOC3)cc21 (stereo not drawn) [Example 168] | 10 to 100 nM | 300 to 600 nM | 10 to 100 nM
CC/C(Nc1cnn(C(F)(F)F)c1)=C1/C(=O)Nc2ccc(C(=O)NCC(C)C)cc21 [Example 169] | 10 to 100 nM | 100 to 300 nM | 10 to 100 nM
CC/C(Nc1cnn(C2CCOCC2)c1)=C1/C(=O)Nc2ccc(C(=O)NCC(C)(C)F)cc21 [Example 173] | ≤ 10 nM | ≤ 100 nM | ≤ 10 nM
